Test results: ChEMBL document CHEMBL1201862, “PubChem BioAssay data set” (2004)
Calls of active or inactive are those of the source. Unless noted, the calls are words filed in the database; no cut-off is given here.

Experiments:
[1] = biological target: Induced myeloid leukemia cell differentiation protein Mcl-1 (Homo sapiens, UniProt Q07820); assay: MCL1-BIM BH3 interaction inhibitors, dose response, biochemical, fluorescence polarization, BIM-BH3 peptide, 1536-well (AID 2217)
[2] = NIH-3T3 fibroblast cytotoxicity, dose response, cytotoxicity control, cell-based, fluorescence, Alamar Blue, secondary assay (AID 2327); format: functional;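 further: NIH-3T3 mouse fibroblasts cultured with fluconazole at 8 µg/mL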
[3] = C. albicans growth with fluconazole, confirmation, fluorescence, retest (AID 2467); format: functional, cell-based
Bcl-2-like protein 1 = Bcl-2-like protein 1 (Homo sapiens, UniProt Q07817); assay: BCL-XL inhibitors, dose response, selectivity assay for MCL1 inhibitor project, biochemical, fluorescence polarization, 1536-well (AID 2218)
[4] = cytotoxicity in L-6 rat myocytes, dose response, cytotoxicity control, cell-based, plate reader, cherry-pick (AID 651896); format: functional
[5] = growth inhibition of intracellular T. cruzi, dose response, cell-based, plate reader, dry powder samples (AID 651845); format: functional
[6] = T. cruzi growth inhibition in host cells, dose response, cell-based, plate reader, dry powder, set 2 (AID 652275); format: functional
[7] = L. donovani amastigote growth inhibition, dose response, axenic amastigotes, plate reader, dry powder (AID 651892); format: functional, cell-based
[8] = intracellular Trypanosoma cruzi inhibitors in host cells – cell-based, plate reader, cherry-pick samples, set 3, dose response (AID 651818); format: functional;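 further: compounds incubated with infected cells for about four days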
[9] = T. b. rhodesiense proliferation inhibition, dose response, STIB900 strain, plate reader, dry powder (AID 651894); format: functional, cell-based
[10] = T. b. rhodesiense proliferation inhibition, dose response, STIB900 strain, plate reader, cherry pick (AID 651893); format: functional, cell-based; details: Trypanosoma brucei
[11] = T. cruzi amastigote growth inhibition, dose response, Tulahuen strain, L-6 host cells, dry powder (AID 651890); format: functional, cell-based
[12] = L. donovani amastigote growth inhibition, dose response, axenic amastigotes, plate reader, cherry pick (AID 651891); format: functional, cell-based; details: Leishmania donovani
[13] = L-6 rat myoblast cytotoxicity, dose response, counter-screen for T. cruzi inhibitor project, cell-based, plate reader, dry powder (AID 651895); format: functional
[14] = T. cruzi intracellular amastigote growth inhibition, dose response, imaging, CA-I/72 strain, bovine embryo skeletal muscle, dry powder (AID 651885); format: functional, cell-based
[15] = P. falciparum blood-stage growth inhibition, dose response, NF54 strain, plate reader, dry powder (AID 651889); format: functional, cell-based
[16] = CCRF-CEM leukemia cell viability loss, dose response, HRAS target identification, CellTiter-Glo ATP luminescence, 8/24/48 h, dry powder (AID 720607); format: functional, cell-based
[17] = C2C12 myoblast ATP-based viability loss, dose response, cytotoxicity control for HRAS target identification, cell-based, CellTiter-Glo ATP luminescence, 8/24/48 h, dry powder (AID 720603); format: functional
[18] = HT-29 colorectal cell cytotoxicity over time, dose response, HRas target identification project, CellTiter-Glo, multiple timepoints, dry powder (AID 720598); format: functional, cell-based
[19] = SNB-19 glioblastoma cell viability loss, dose response, HRAS target identification, Alamar Blue fluorescence, 8/24/48 h, dry powder (AID 720600); format: functional, cell-based
[20] = U-251 glioblastoma cell viability loss, dose response, HRAS target identification, Alamar Blue fluorescence, 8/24/48 h, dry powder (AID 720605); format: functional, cell-based
[21] = SNB-19 glioblastoma cell viability over time, late-stage follow-up, mechanism study for HRAS target identification, CellTiter-Glo ATP luminescence, 8-48 h, dry powder (AID 720611); format: functional, cell-based
[22] = LOX IMVI melanoma cell viability loss, dose response, HRAS target identification, CellTiter-Glo ATP luminescence, 8/24/48 h, dry powder (AID 720602); format: functional, cell-based
[23] = SR lymphoma cell viability over time, late-stage follow-up, mechanism study for HRAS target identification, CellTiter-Glo ATP luminescence, 8-48 h, dry powder (AID 720608); format: functional, cell-based
[24] = cytotoxicity in KRAS-transformed pancreatic duct cells, primary screen, cell-based, fluorescence, HTS (AID 431); format: functional; details: Homo sapiens;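 further: cell line used: HPDE-C7K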
[25] = cytotoxicity in HEK-293T cells, dose response, cytotoxicity control for BCR NF-kB inhibitor project, luminescence, B-cell screen hits (AID 489021); format: functional, cell-based;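 further: HEK-293T cells carrying an NF-kB luciferase reporter; cells exposed to compound for about 14 hours before viability readout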
[26] = growth suppression of PTEN-null colon cells, dose response, cell-based, HCT116 PTEN knockout (AID 1047); format: functional;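 further: HCT116 colon tumor cells with PTEN knocked out; cells exposed to compound for 60 hours before readout; potency for loss of cell viability measured by luminescence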
[27] = growth suppression of beta-catenin-knockout colon cells, dose response, cell-based, HCT116, human colon tumor (AID 1045); format: functional;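 further: HCT116 colon tumor cells with beta catenin knocked out; cells exposed to compound for 60 hours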
[28] = microbe, parasite or virus in culture; format: functional; details: Mycobacterium tuberculosis
[29] = cytotoxicity in HPDE-C7 cells, cell-based, fluorescence, HTS (AID 430); format: functional; details: Homo sapiens
[30] = inhibitors of intracellular T. cruzi replication, confirmation, NIH3T3 host cells, beta-gal luminescence (AID 2044); format: functional, cell-based;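 further: intracellular parasites grown in NIH/3T3 mouse fibroblasts as host cells; luminescent beta-galactosidase reporter signal from transgenic T. cruzi replicating inside host cells; inhibitors lower the luminescence signal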
[31] = cytotoxicity toward NIH3T3 fibroblasts, dose response, counter-screen, cell-based, ATP luminescence, mouse fibroblasts (AID 2010); format: functional;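 further: cells exposed to compound for about 90 hours before reading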
[32] = biological target: G-protein coupled receptor 183 (Homo sapiens, UniProt P32249); assay: SAR confirmation of small molecule antagonists of the EBI2 receptor via a luminescent beta-arrestin assa.; format: functional
cells [33] = details: HEK293
[34] = Plasmodium falciparum Dd2 Sybr green parasite growth Measured in Cell-Based and Microorganism Combination System Using Plate Reader - 2153-01_Inhibitor_Dose_DryPowder_Activity_Set3.; format: functional
[35] = P. falciparum Dd2 growth inhibitors, dose response, SYBR Green, dry powder samples (AID 1159566); format: functional, cell-based;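 further: potency for growth inhibition with lower SYBR green DNA signal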
[36] = P. falciparum 3D7-ScDHODH growth inhibitors, dose response, SYBR Green, dry powder samples (AID 1159570); format: functional, cell-based;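 further: parasite growth measured after 72 hours of compound exposure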
[37] = P. falciparum Dd2 growth inhibitors, dose response, SYBR Green, cherry-picked samples (AID 1159567); format: functional, cell-based
[38] = P. falciparum ATP4 D1247Y mutant growth inhibitors, dose response, NITD609-resistant line, SYBR Green, dry powder (AID 1159571); format: functional, cell-based;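 further: parasites synchronized at ring stage by sorbitol before testing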
[39] = P. falciparum Dd2 growth inhibitors, dose response, SYBR Green, dry powder samples, set 9 (AID 1159568); format: functional, cell-based
cells [40] = format: functional, cell-based; details: INS-1E
[41] = Dose-response inhibition of insulin secretion in a rat insulinoma line at 5 mM glucose (AID 1117331); format: functional, cell-based; details: INS-1E

Chain of Bcl-2-like protein 1 (Q07817 whole entry): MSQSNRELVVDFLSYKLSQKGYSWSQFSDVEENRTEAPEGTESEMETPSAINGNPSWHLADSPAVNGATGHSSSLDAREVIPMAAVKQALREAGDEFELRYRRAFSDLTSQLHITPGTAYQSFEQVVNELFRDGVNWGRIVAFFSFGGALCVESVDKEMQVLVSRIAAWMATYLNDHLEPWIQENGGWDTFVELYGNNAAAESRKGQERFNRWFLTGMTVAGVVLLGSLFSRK
Chain of G-protein coupled receptor 183 (P32249 whole entry): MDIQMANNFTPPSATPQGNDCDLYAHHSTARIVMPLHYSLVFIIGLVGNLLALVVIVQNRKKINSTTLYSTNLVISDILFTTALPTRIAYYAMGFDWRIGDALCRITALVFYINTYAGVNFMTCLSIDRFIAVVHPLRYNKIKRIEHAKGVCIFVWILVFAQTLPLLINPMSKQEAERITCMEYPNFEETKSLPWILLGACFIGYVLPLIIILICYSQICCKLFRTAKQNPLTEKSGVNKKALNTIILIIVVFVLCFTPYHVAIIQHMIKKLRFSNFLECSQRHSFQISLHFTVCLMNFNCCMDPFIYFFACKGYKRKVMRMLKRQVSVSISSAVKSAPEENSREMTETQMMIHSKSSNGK
Chain of Induced myeloid leukemia cell differentiation protein Mcl-1 (Q07820 whole entry): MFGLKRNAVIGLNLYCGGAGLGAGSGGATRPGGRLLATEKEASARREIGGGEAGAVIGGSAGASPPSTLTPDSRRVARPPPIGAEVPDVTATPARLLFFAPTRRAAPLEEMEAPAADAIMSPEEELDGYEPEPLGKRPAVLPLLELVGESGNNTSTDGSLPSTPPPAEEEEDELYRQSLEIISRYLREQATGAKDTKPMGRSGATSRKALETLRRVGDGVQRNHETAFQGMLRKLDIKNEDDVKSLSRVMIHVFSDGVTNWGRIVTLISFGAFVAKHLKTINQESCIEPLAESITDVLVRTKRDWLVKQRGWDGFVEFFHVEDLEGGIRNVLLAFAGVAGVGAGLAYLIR

C=CCc1cccc(/C=N/NC(=O)CNc2cccc3ccccc23)c1O
IC50 [1]: > 109 µM (not active) | EC50 [2]: > 150 µM (inactive) | EC50 [3]: 3.28 µM (active) | IC50 (Bcl-2-like protein 1): > 109 µM (not active)

C[C@H]1CN([C@@H](C)CO)C(=O)c2cccc(NC(=O)c3ccncc3)c2O[C@@H]1CN(C)Cc1ccc(Oc2ccccc2)cc1
IC50 [4]: 14.4 µM (active) | AC50 [5]: 0.000457 µM (active) | AC50 [6]: 0.00442 µM (active) | IC50 [7]: 8.4 µM (inactive) | AC50 [8]: 0.08 µM (active) | IC50 [9]: 1.5 µM (inactive) | IC50 [10]: 5.78 µM (inactive) | IC50 [11]: 0.0295 µM (active) | IC50 [12]: 13.2 µM (inactive) | IC50 [13]: 17.1 µM (inactive) | IC50 [14]: 0.00066 µM (active) | IC50 [15]: 0.504 µM (inactive)

C#CCCCC(=O)NCCOCCOCCOc1ccc(N(C(=O)CCl)C(C(=O)NCCc2ccccc2)c2cccs2)cc1Cl (configuration not stated)
AC50 [16]: 1.38 µM (active) | AC50 [17]: 16.6 µM (active) | AC50 [18]: 4.9 µM (active) | AC50 [19]: 22.4 µM (active) | AC50 [20]: 1.25 µM (active) | AC50 [21]: 4.54 µM (active) | AC50 [22]: 0.993 µM (active) | AC50 [23]: 1.18 µM (active)

CCC(C)NC(=O)c1c(N)n(/N=C/c2ccccn2)c2nc3ccccc3nc12 (configuration not stated)
EC50 [24]: 6.39 µM (active) | IC50 [25]: 43.2 µM (inactive) | EC50 [26]: 32.3 µM (active) | EC50 [27]: 30.2 µM (active) | CC50 [28]: > 40 µM (active) | EC50 [29]: 4.73 µM (active) | EC50 [30]: 2.18 µM (active) | EC50 [31]: > 30 µM (not active)

O=C(CCc1ccc(F)cc1)N1CCN(S(=O)(=O)/C=C/c2ccccc2)CC1
IC50 [32]: 0.113 µM (active)

Cc1ccc(C(C)C)c(OCCn2/c(=N/C#N)[nH]c3ccccc32)c1
AC50 (cells [33]): 34 µM (active)

CO[C@@H]1CN(C)C(=O)c2ccc(NC(=O)Nc3ccccc3F)cc2OC[C@@H](C)N(Cc2ccccc2F)C[C@H]1C
AC50 [34]: 0.586 µM (active) | AC50 [35]: 0.0449 µM (active) | AC50 [36]: 0.948 µM (active) | AC50 [37]: 0.356 µM (active) | AC50 [38]: 0.122 µM (active) | AC50 [39]: 0.674 µM (active)

CCOc1cc(CC(=O)N[C@@H](CC(C)C)c2ccccc2N2CCCCC2)ccc1C(=O)O [REPAGLINIDE]
IC50 (cells [40]): 0.136 µM (active) | IC50 [41]: 0.027 µM (active)
